From patent US20150057246A1, “SILYL-CONTAINING HETEROCYCLIC COMPOUNDS AND METHODS OF USE THEREOF FOR THE TREATMENT OF VIRAL DISEASES” (priority 2012, published 2015)
Read-outs that look alike come from different tables or passages of the source.

Experiments:
[1] = test system: HCV 1a replicon; test: Cell-based HCV replicon assay (TaqMan), genotype 1a replicon; settings: HCV genotype 1a replicon cells, replicon RNA by real time PCR, day 3, EC90 = concentration for ΔCT=3.2 over baseline
Protocol: (§1) Measurement of inhibition by compounds of the present invention was performed using the HCV replicon system. Several different replicons encoding different HCV genotypes or mutations were used. In addition, potency measurements were made using different formats of the replicon assay, including different ways of measurements and different plating formats. See Jan M. Vrolijk et al., A replicons-based bioassay for the measurement of interferons in patients with chronic hepatitis C, 110 J. VIROLOGICAL METHODS 201 (2003); Steven S. Carroll et al., Inhibition of Hepatitis C Virus RNA Replication by 2′-Modified Nucleoside Analogs, 278(14) J. BIOLOGICAL CHEMISTRY 11979 (2003). However, the underlying principles are common to all of these determinations, and are outlined below.
(§2) TaqMan®-Based Assay Protocol:
(§3) Compounds of the present invention were assayed for cell-based anti-HCV activity using the following protocol. Replicon cells were seeded at 5000 cells/well in 96-well collagen I-coated Nunc plates in the presence of the test compound. Various concentrations of test compound, typically in 10 serial 2-fold dilutions, were added to the assay mixture, with the starting concentration ranging from 250 μM to 1 μM. The final concentration of DMSO was 0.5%, fetal bovine serum was 5%, in the assay media. Cells were harvested on day 3 by the addition of 1× cell lysis buffer (Ambion cat #8721). The replicon RNA level was measured using real time PCR (TaqMan® assay). The amplicon was located in 5B. The PCR primers were: 5B.2F, ATGGACAGGCGCCCTGA (SEQ. ID NO. 1); 5B.2R, […] (SEQ. ID NO. 2); the probe sequence was FAM-labeled CACGCCATGCGCTGCGG (SEQ. ID NO. 3). GAPDH RNA was used as endogenous control and was amplified in the same reaction as NS5B (multiplex PCR) using primers and VIC-labeled probe recommended by the manufacturer (PE Applied Biosystem). The real-time […] reactions were run on ABI PRISM 7900HT Sequence Detection System using the following program: 48° C. for 30 minutes, 95° C. for 10 minutes, 40 cycles of 95° C. for 15 sec, 60° C. for 1 minute. The ΔCT values (CT5B-CTGAPDH) were plotted against the concentration of test compound and fitted to the sigmoid dose-response model using XLfit4 (MDL). EC50 was defined as the concentration of inhibitor necessary to achieve ΔCT=1 over the projected baseline; EC90 the concentration necessary to achieve ΔCT=3.2 over the baseline. Alternatively, to quantitate the absolute amount of replicon RNA, a standard curve was established by including serially diluted T7 transcripts of replicon RNA in the Taqman assay. All TaqMan® reagents were from PE Applied Biosystems. Such an assay procedure was described in detail in e.g. Malcolm et al., Antimicrobial Agents and Chemotherapy 50: 1013-1020 (2006).
(§4) HCV replicon EC50 assay data for various replicons and mutants was calculated for selected compounds of the present invention using this method and is provided in the tables above herein.

[2] = test system: HCV 2b replicon; test: Cell-based HCV replicon assay (TaqMan), genotype 2b replicon; settings: Hepatitis C virus, 72 h, read-out: 2b EC90, HCV genotype 2b replicon cells, replicon RNA by real time PCR, day 3; EC90 = concentration for ΔCT=3.2 over baseline
Protocol: as §1, §2, §3, §4

[3] = test system: HCV 1b replicon; test: Cell-based HCV replicon assay (TaqMan), genotype 1b replicon; settings: HCV genotype 1b replicon cells, replicon RNA by real time PCR, day 3, EC90 = concentration for ΔCT=3.2 over baseline
Protocol: as §1, §2, §3, §4

[4] = test system: HCV 1a Y93H replicon; test: Cell-based HCV replicon assay (TaqMan), 1a Y93H mutant replicon; settings: EC90 = concentration for ΔCT=3.2 over baseline
Protocol: as §1, §2, §3, §4

[5] = Hepatitis C virus, 72 h, read-out: 1a Y93H EC90, HCV 1a Y93H mutant replicon cells, replicon RNA by real time PCR, day 3

SMILES | EC90 [1] [nM] | EC90 [2] [nM] | EC90 [3] [nM] | EC90 ([4]; read-out: 1a Y93H EC90, HCV 1a Y93H mutant replicon cells, replicon RNA by real time PCR, day 3) [nM] | EC90 ([1]; Hepatitis C virus, 72 h) [nM] | EC90 ([3]; Hepatitis C virus, 72 h) [nM] | EC90 [4, 5] [nM]
COC(=O)N[C@H](C(=O)N1C[Si](C)(C)C[C@H]1c1nc2ccc3cc(-c4ccc(-c5cnc([C@@H]6C[C@H]7C[C@H]7N6C(=O)[C@@H](NC(=O)OC)C(C)C)[nH]5)cc4)ccc3c2[nH]1)C(C)C [Compound 105] | 0.26 | 301 | 0.02 | 605 | – | – | –
COC(=O)N[C@H](C(=O)N1CCC[C@H]1c1ncc(-c2ccc(-c3ccc4c(ccc5nc([C@@H]6C[Si](C)(C)CN6C(=O)[C@@H](NC(=O)OC)C6CC6)[nH]c54)c3)cc2)[nH]1)C(C)C [Compound 70] | – | 162 | – | – | 0.35 | 0.02 | > 1000
COC(=O)N[C@H](C(=O)N1CCC[C@H]1c1ncc(-c2ccc(-c3ccc4c(ccc5nc([C@@H]6C[Si](C)(C)CN6C(=O)[C@@H](NC(=O)OC)C6CCCCC6)[nH]c54)c3)cc2)[nH]1)C(C)C [Compound 67] | – | 129 | – | – | 0.5 | 0.02 | > 1000
COC(=O)N[C@H](C(=O)N1C[Si](C)(C)C[C@H]1c1ncc(-c2ccc(-c3ccc4c(ccc5nc([C@@H]6CC(F)(F)CN6C(=O)[C@@H](NC(=O)OC)C(C)C)[nH]c54)c3)cc2)[nH]1)C(C)C [Compound 8] | – | – | – | – | 0.042 | 0.02 | 65
COC(=O)N[C@H](C(=O)N1CCC[C@H]1c1ncc(-c2ccc(-c3ccc4c(ccc5nc([C@@H]6C[Si](C)(C)CN6C(=O)[C@@H](NC(=O)OC)[C@H](O)C(C)C)[nH]c54)c3)cc2)[nH]1)C(C)C [Compound 68] | – | 143 | – | – | 0.21 | 0.02 | > 1000
COC(=O)N[C@H](C(=O)N1CCC[C@H]1c1ncc(-c2ccc(-c3ccc4c(ccc5nc([C@@H]6C[Si](C)(C)CN6C(=O)[C@@H](NC(=O)OC)C6CCOCC6)[nH]c54)c3)cc2)[nH]1)C1CCOCC1 [Compound 18] | – | 2.8 | – | – | 0.023 | 0.014 | > 100
COC(=O)N[C@H](C(=O)N1C[Si](C)(C)C[C@@H]1c1nc2ccc3cc(-c4ccc5cc(-c6cnc([C@H]7CCCN7C(=O)[C@H](NC(=O)OC)C(C)C)[nH]6)ccc5c4)ccc3c2[nH]1)C1CCOCC1 [Compound 118] | – | > 100 | – | – | 0.023 | > 1 | > 100
COC(=O)N[C@H](C(=O)N1C[Si](C)(C)C[C@H]1c1nc2ccc3cc(-c4ccc(-c5cnc([C@@H]6[C@H]7CC[C@H](C7)N6C(=O)[C@@H](NC(=O)OC)C(C)C)[nH]5)cc4)ccc3c2[nH]1)C(C)C [Compound 6] | – | – | – | – | 0.17 | 0.02 | 404
COC(=O)N[C@H](C(=O)N1CCC[C@H]1c1ncc(-c2ccc3cc(-c4ccc5c(ccc6nc([C@@H]7C[Si](C)(C)CN7C(=O)[C@@H](NC(=O)OC)C7CCOCC7)[nH]c65)c4)ccc3c2)[nH]1)C1CCOCC1 [Compound 113] | – | 97 | – | – | 0.026 | > 1 | –
COC(=O)N[C@H](C(=O)N1CCC[C@H]1c1ncc(-c2ccc3cc(-c4ccc5c(ccc6nc([C@@H]7C[Si](C)(C)CN7C(=O)[C@@H](NC(=O)OC)C(C)C)[nH]c65)c4)ccc3c2)[nH]1)C(C)C [Compound 112] | – | > 100 | – | – | 0.046 | > 1 | > 100
COC(=O)N[C@H](C(=O)N1C[Si](C)(C)C[C@H]1c1nc(Cl)c(-c2ccc(-c3ccc4c(ccc5nc([C@@H]6CCCN6C(=O)[C@@H](NC(=O)OC)C(C)C)[nH]c54)c3)cc2)[nH]1)C(C)C [Compound 96] | – | 263 | – | – | 0.24 | 0.69 | 368
